These results are taken from patent US6107308A, “Piperidine derivatives” (Kowa Co., Ltd., priority 1997, dated 2000).

In data set [1] the test system is leukotriene D4 (LTD4)-induced contraction of guinea pig ileum. Briefly: Antileukotriene action (in vitro test), isotonic contraction of isolated ileum induced with LTD4. The note with it: Cavia porcellus; test compound 10^-5 M, contraction with 10^-8 M LTD4; read-out: LTD4 action (inhibition exerted by a test compound at 10^-5 M). How it is done:
(§1) Antihistaminic action and antileukotriene action (in vitro test):
(§2) A guinea pig was subjected to ileectomy, and the ileum was cut to have a length of about 2 cm. Each piece of ileum was suspended in a Tyrode's buffer placed in a 20-ml organ bath. Isotonic contraction in response to histamine or leukotriene D4 was recorded by use of a recording apparatus. The Tyrode's buffer was aerated with a gas mixture (95% O2 -5% CO2) while the temperature of the buffer was maintained at 30° C. Antihstaminic activity was tested by adding 10^-8 to 10^-4 M histamine to the organ bath and obtaining a dose-response curve. After washing with a buffer several times, a test compound was added to the organ bath. Thirty minutes later, another dose-response curve of histamine was obtained. For the test of antileukotriene activity, effects exerted by addition of a 10^-5 M test compound on the contraction included with 10^-8 M LTD4 was investigated.

The target of data set [2] is histamine-induced contraction of guinea pig ileum (Cavia porcellus, UniProt P31389). Briefly: Antihistaminic action (in vitro test), isotonic contraction of isolated ileum in response to histamine. The note with it: histamine 10^-8 to 10^-4 M, 30 min after addition of test compound; for Kb: read-out: Anti-histaminic action pA2 (converted). How it is done:
as §1, §2

The next data set concerns the target T1, LTD4 Receptor (Cavia porcellus, UniProt Q2NNR5).
T1 construct: guinea pig lung protein; from tissue; host or cells: guinea pig lung
T1 sequence (Q2NNR5 1-340): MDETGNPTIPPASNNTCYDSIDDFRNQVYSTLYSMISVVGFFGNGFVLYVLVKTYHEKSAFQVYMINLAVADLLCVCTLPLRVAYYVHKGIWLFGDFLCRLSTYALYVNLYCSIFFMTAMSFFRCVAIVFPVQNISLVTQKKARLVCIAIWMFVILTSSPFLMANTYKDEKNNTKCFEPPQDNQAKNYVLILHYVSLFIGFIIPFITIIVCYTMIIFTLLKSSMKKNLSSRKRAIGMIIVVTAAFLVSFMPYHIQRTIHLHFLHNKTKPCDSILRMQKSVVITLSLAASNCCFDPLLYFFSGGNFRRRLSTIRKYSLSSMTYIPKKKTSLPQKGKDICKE
Briefly: LTD4 Receptor binding inhibitory test ([^3 H] leukotriene D4). The arrangement: species or system guinea pig. How it is done: LTD4 Receptor binding inhibitory test:
Reaction was stopped by addition of ice-cold Tris-HCl/NaCl (10 mM/100 mM, pH 7.5) buffer, and immediately thereafter, the reaction mixture was filtered by use of a Wattman CF/C filter. The filter was washed twice, each time with 20 ml ice-cold buffer. Radioactivity of the residue was measured by use of a liquid scintillation counter. […] In a saturation test, 2 μM leukotriene D4 was used for the measurement of the amount of non-specific binding.

Data set [3] concerns the target H1 receptor (Cavia porcellus, UniProt P31389). Briefly: biochemical. It is filed as binding, guinea pig. How it is done:
H1 receptor binding inhibitory test:
Reaction was stopped by addition of ice-cold phosphate buffer, and immediately thereafter, the reaction mixture was filtered by use of a Wattman CF/C filter. The filter was washed twice, each time with 20 ml ice-cold buffer. Radioactivity of the residue was measured by use of a liquid scintillation counter. From the value as obtained when a test compound was not added and values as obtained when the test compound was added at different concentrations, there was determined a dose-response curve representing suppression action of the test compound, from which a 50% inhibitory concentration (IC50) was obtained. Based on the IC50 value and by use of the Cheng-Prusoff equation, a dissociation constant (KD) was calculated (Table 4). In a saturation test, 10^-4 M R(-)-dimethindene was used for the measurement of the amount of non-specific binding.

The test system of data set [4] is leukotriene D4 (LTD4)-induced contraction of guinea pig ileum. As to the kind of experiment: Antileukotriene action (in vitro test), isotonic contraction of isolated ileum induced with LTD4. The note with it: Cavia porcellus; contraction with 10^-8 M LTD4.
For data set [5], the target named is T2, H1 receptor (Mus musculus, UniProt P70174).
T2 construct: from tissue; host or cells: mouse brain homogenate after intraperitoneal dosing
T2 sequence (P70174 whole entry): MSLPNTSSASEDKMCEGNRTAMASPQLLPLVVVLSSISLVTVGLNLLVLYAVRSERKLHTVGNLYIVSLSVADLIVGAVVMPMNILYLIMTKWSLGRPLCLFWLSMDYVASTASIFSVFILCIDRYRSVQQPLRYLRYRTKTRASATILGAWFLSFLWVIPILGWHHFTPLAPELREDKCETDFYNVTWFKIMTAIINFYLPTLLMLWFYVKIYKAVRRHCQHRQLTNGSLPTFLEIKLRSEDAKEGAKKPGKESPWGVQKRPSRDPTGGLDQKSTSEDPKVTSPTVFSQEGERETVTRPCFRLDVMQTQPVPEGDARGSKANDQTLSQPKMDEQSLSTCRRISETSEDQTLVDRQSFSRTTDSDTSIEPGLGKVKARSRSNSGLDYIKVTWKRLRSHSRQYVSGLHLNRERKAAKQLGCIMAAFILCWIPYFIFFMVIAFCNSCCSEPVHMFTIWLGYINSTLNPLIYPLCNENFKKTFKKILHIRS
As to the kind of experiment: Test on migration into the brain (ex vivo [^3 H]mepyramine binding in mouse brain after intraperitoneal administration). On the set-up: species or system mice. As to conditions: ip. How it is done: Test on migration into the brain:
The test was performed in accordance with a method described by Zang. […] Briefly, several mice each weighing 20-23 g were provided, and to each mouse was intraperitoneally administered a test sample having a predetermined concentration. One hour later, each mouse was sacrificed and its brain was removed. The brain tissue was mixed with 30 mM Na, K phosphate buffer (pH 7.5) so as to attain a concentration of 40 ml/g wet weight, and the mixture was homogenized. […] The mixture was incubated at 37° C. for 50 minutes. Subsequently, reaction was stopped by addition of ice-cold phosphate buffer, and immediately thereafter, the reaction mixture was filtered by use of a Wattman CF/C filter. The filter was washed twice, each time with 20 ml ice-cold buffer. Radioactivity of the residue was measured by use of a liquid scintillation counter. […] The cerebral migration index, BPindex, was calculated from the following equation.
BPindex=IC50 (mg/kg)/dissociation constant for H1 recepters (nM)

Structures can show the parent of a compound that is named as a salt.

Sequence of histamine-induced contraction of guinea pig ileum (P31389 whole entry): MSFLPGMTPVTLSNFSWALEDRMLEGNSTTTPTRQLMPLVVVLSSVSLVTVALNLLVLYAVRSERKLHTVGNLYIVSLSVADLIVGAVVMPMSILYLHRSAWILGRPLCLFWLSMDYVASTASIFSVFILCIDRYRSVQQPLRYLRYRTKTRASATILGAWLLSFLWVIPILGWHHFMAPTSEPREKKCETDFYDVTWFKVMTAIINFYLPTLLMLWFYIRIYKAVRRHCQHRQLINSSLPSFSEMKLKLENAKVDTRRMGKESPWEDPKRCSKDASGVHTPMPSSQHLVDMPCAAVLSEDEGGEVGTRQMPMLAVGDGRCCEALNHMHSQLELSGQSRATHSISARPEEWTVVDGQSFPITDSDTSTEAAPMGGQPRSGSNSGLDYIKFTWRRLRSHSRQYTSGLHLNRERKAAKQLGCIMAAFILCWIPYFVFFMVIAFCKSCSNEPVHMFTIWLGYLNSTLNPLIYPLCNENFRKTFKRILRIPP
Sequence of H1 receptor (Cavia porcellus, UniProt P31389) (P31389 whole entry): as above

`Cc1ccc(OCCCN2CCC(=Cc3ccc4ccccc4n3)CC2)c2c1NC(=O)CC2` [Example 3, 8-Methyl-5-[3-[4-(2-quinolylmethylene)piperidino]propoxy]-1,2,3,4-tetrahydroquinolin-2-one]: the inhibition (commonly the relative decrease from the control value, in per cent) at 10 µM in data set [1] was found to be 77%. The Kb in data set [2] is 0.141 nM. In addition, binding on LTD4 Receptor was put at a Kd of 55 µM.

As for `O=C1CCc2cc(OCCN3CCC(=Cc4ccc5ccccc5n4)CC3)ccc2N1` [Example 4, 6-[2-[4-(2-Quinolylmethylene)piperidino]ethoxy]-1,2,3,4-tetrahydroquinolin-2-one], the Kd (commonly the free concentration of one partner at which half of the binding sites on the other are occupied at equilibrium, for simple one-to-one binding) at LTD4 Receptor stood at 12.7 µM; on H1 receptor [3], 164 nM.

As to `Cc1ccc(OCCCN2CCC(Cc3ccc4ccccc4n3)CC2)c2ccc(=O)[nH]c12` [Example 26, 8-Methyl-5-[3-[4-(2-quinolylmethyl)-piperidino]propoxy]carbostyryl], the inhibition at 10 µM in data set [1] was determined as 29%. Also, the Kb in data set [2] is 0.162 nM.

With `Cc1ccc(OCCCN2CCC(=Cc3ccc4ccccc4n3)CC2)c2ccc(=O)[nH]c12` [Example 11, 8-Methyl-5-[3-[4-(2-quinolylmethylene)-piperidino]propoxy]carbostyryl], in data set [1], the inhibition at 10 µM came to 39%. Further, the Kb in data set [2] was 0.219 nM. In addition, binding at LTD4 Receptor was put at a Kd of 20 µM.

`O=C1CCc2cccc(OCCCN3CCC(=Cc4ccc5ccccc5n4)CC3)c2N1` [Example 8, 8-[3-[4-(2-Quinolylmethylene)piperidino]propoxy]-1,2,3,4-tetrahydroquinolin-2-one oxalate]: the inhibition at 10 µM in data set [1] worked out at 30%. Besides, in data set [2], the Kb was 0.224 nM.

As to `O=C1NCCCc2cc(OCCCN3CCC(=Cc4ccc5ccccc5n4)CC3)ccc21` [Example 13, 7-[3-[4-(2-Quinolylmethylene)piperidino]propoxy]-2,3,4,5-tetrahydro-1H-benz[c]azepin-1-one oxalate], the inhibition at 10 µM in data set [1] came out at 39%. The Kb in data set [2] was 0.174 nM. The Kd at LTD4 Receptor was determined as 19 µM; at H1 receptor [3] it was 1.15 nM.

For the compound `Cc1ccc(OCCN2CCC(Cc3ccc4ccccc4n3)CC2)c2ccc(=O)[nH]c12` [Example 25, 8-Methyl-5-[2-[4-(2-quinolylmethyl)-piperidino]ethoxy]carbostyryl], the midpoint of inhibition in data set [4], the IC50, lay at 3.4 µM. Further, the inhibition at 10 µM in data set [1] was 88%. The Kb in data set [2] is 0.468 nM.

Consider `O=C1CCc2cc(OCCCN3CCC(=Cc4ccc5ccccc5n4)CC3)ccc2N1` [Example 5, 6-[3-[4-(2-Quinolylmethylene)piperidino]propoxy]-1,2,3,4-tetrahydroquinolin-2-one], for which the dissociation constant (Kd) at LTD4 Receptor worked out at 54.4 µM; at H1 receptor [3], 0.0469 nM.

Consider `C(=C1CCN(CCCOc2ccc3c(c2)CCCc2nnnn2-3)CC1)c1ccc2ccccc2n1` [Example 14, 8-[3-[4-(2-Quinolylmethylene)piperidino]propoxy]-5,6-dihydro-4H-tetrazolo[1,5-a]benz[b]azepine oxalate], for which the inhibition at 10 µM in data set [1] was 40%. In data set [2], the Kb is 0.0525 nM. Binding on LTD4 Receptor was characterised by a dissociation constant (Kd) of 98.9 µM.

Regarding `Cc1ccc(OCCN2CCC(=Cc3ccc4ccccc4n3)CC2)c2ccc(=O)[nH]c12` [Example 10, 8-Methyl-5-[2-[4-(2-quinolylmethylene)-piperidino]ethoxy]carbostyryl], the selectivity ratio at 1 h at H1 receptor [5] (brain, BPindex = IC50 (mg/kg)/dissociation constant for H1 receptors (nM), read-out: cerebral migration index, BP index) was 930. The ED50 at H1 receptor [5] (1 h, read-out: IC50 (ex vivo)) was 33 mg/kg. The inhibition at 10 µM in data set [1] was 61%. The Kb in data set [2] was 0.0832 nM. The Kd came out at 9.86 µM on LTD4 Receptor and 0.0351 nM on H1 receptor [3].

Regarding `O=C1CCCc2cc(OCCCN3CCC(=Cc4ccc5ccccc5n4)CC3)ccc2N1` [Example 12, 7-[3-[4-(2-Quinolylmethylene)piperidino]propoxy]-2,3,4,5-tetrahydro-1H-benz[b]azepin-2-one oxalate], in data set [1], the inhibition at 10 µM was determined as 12%. Also, in data set [2], the Kb is 0.178 nM. Besides, the Kd amounted to 15.8 µM at LTD4 Receptor and 0.0238 nM on H1 receptor [3].

On to `O=C1CSc2cc(OCCCN3CCC(Cc4ccc5ccccc5n4)CC3)ccc2N1` [Example 16, 7-[3-[4-(2-Quinolylmethyl)piperidino]propoxy]-3,4-dihydro-2H-1,4-benzothiazin-3-one], for which, in data set [1], the inhibition at 10 µM amounted to 15%. For the same compound, the “Anti-histaminic action pD'2” value in data set [2] is on record as 8.01.

For the compound `Cc1ccc(OCCCN2CCC(Cc3ccc4ccccc4n3)CC2)c2c1NC(=O)C2(C)C` [Example 15, 4-[3-[4-(2-quinolylmethyl)piperidino]-propoxy]-3,3,7-trimethyl-2,3-dihydro-1H-indol-2-one], the inhibition at 10 µM in data set [1] amounted to 19%. Besides, in data set [2], the Kb is 0.324 nM. Moreover, the figures for the dissociation constant Kd on LTD4 Receptor and on H1 receptor [3] were 8.06 µM and 3.1 nM, respectively.

In the case of `Cc1ccc(OCCN2CCC(Cc3ccc4ccccc4n3)CC2)c2c1NC(=O)CC2` [Example 17, 8-Methyl-5-[2-[4-(2-quinolylmethyl)piperidino]ethoxy]-1,2,3,4-tetrahydroquinolin-2-one], the inhibition at 10 µM in data set [1] is 23%. In addition, the Kb in data set [2] was 0.166 nM.

As to `O=C1CSc2cc(OCCCN3CCC(=Cc4ccc5ccccc5n4)CC3)ccc2N1` [Example 2, 7-[3-[4-(2-Quinolylmethylene)piperidino]propoxy]-3,4-dihydro-2H-1,4-benzothiazin-3-one], the inhibition at 10 µM in data set [1] came to 21%. Moreover, the “Anti-histaminic action pD'2” value in data set [2] is given as 8.22.

`O=C1CCc2ccc(OCCCN3CCC(=Cc4ccc5ccccc5n4)CC3)cc2N1` [Example 9, 7-[3-[4-(2-Quinolylmethylene)piperidino]propoxy]-1,2,3,4-tetrahydroquinolin-2-one oxalate]: the inhibition at 10 µM in data set [1] is 15%. Besides, the Kb in data set [2] is 2.95 nM.
